# Source: patent US9650361B2, “N-(pyridin-2-yl)pyrimidin-4-amine derivatives containing a sulfoximine group” (BAYER PHARAM AKTIENGESELLSCHAFT, priority 2012, dated 2017)
# Like-named read-outs stand apart in the source and are kept apart here.
# Columns and labels:
# [1] = system: A2780 cells; test: Proliferation assay, A2780 (Method 3); type: cell-based, human; settings: 4 days, crystal violet, read-out: Inhibition of A2780 cell proliferation IC50
# Protocol: (§1) Cultivated tumour cells (HeLa, human cervical tumour cells, ATCC CCL-2; NCI-H460, human non-small cell lung carcinoma cells, ATCC HTB-177; A2780, human ovarian carcinoma cells, ECACC #93112519; DU 145, hormone-independent human prostate carcinoma cells, ATCC HTB-81; HeLa-MaTu-ADR, multidrug-resistant human cervical carcinoma cells, EPO-GmbH Berlin; Caco-2, human colorectal carcinoma cells, ATCC HTB-37; B16F10, mouse melanoma cells, ATCC CRL-6475) were plated at a density of 5,000 cells/well (DU145, HeLa-MaTu-ADR), 3,000 cells/well (NCI-H460, HeLa), 2,500 cells/well (A2780), 1,500 cells/well (Caco-2), or 1,000 cells/well (B16F10) in a 96-well multititer plate in 200 μL of their respective growth medium supplemented 10% fetal calf serum. After 24 hours, the cells of one plate (zero-point plate) were stained with crystal violet (see below), while the medium of the other plates was replaced by fresh culture medium (200 μl), to which the test substances were added in various concentrations (0 μM, as well as in the range of 0.001-10 μM; the final concentration of the solvent dimethyl sulfoxide was 0.5%). The cells were incubated for 4 days in the presence of test substances. Cell proliferation was determined by staining the cells with crystal violet: the cells were fixed by adding 20 μl/measuring point of an 11% glutaric aldehyde solution for 15 minutes at room temperature. After three washing cycles of the fixed cells with water, the plates were dried at room temperature. The cells were stained by adding 100 μl/measuring point of a 0.1% crystal violet solution (pH 3.0). After three washing cycles of the stained cells with water, the plates were dried at room temperature. The dye was dissolved by adding 100 μl/measuring point of a 10% acetic acid solution. The extinction was determined by photometry at a wavelength of 595 nm. The change of cell number, in percent, was calculated by normalization of the measured values to the extinction values of the zero-point plate (=0%) and the extinction of the untreated (0 μm) cells (=100%). The IC50 values (inhibitory concentration at 50% of maximal effect) were determined by means of a 4 parameter fit.
# [2] = system: B16F10 cells; test: Proliferation assay, B16F10 (Method 3); type: cell-based, mouse; settings: 4 days, crystal violet, read-out: Inhibition of B16F10 cell proliferation IC50
# Protocol: as §1
# [3] = system: HeLa-MaTu-ADR cells; test: Proliferation assay, HeLa-MaTu-ADR (Method 3); type: cell-based, human; settings: 4 days, crystal violet, read-out: Inhibition of HeLa-MaTu-ADR cell proliferation IC50
# Protocol: as §1
# [4] = target: T1, CDK2/CycE (Homo sapiens, UniProt P24941); test: CDK2/CycE kinase assay (Method 2a); type: biochemical; settings: 10 μM ATP
# T1 construct: GST; purchased ProQinase GmbH (Freiburg, Germany); host or cells: insect cells (Sf9)
# Description: 2a. CDK2/CycE Kinase Assay:
# CDK2/CycE-inhibitory activity of compounds of the present invention was quantified employing the CDK2/CycE TR-FRET assay as described in the following paragraphs:
# Recombinant fusion proteins of GST and human CDK2 and of GST and human CycE, expressed in insect cells (Sf9) and purified by Glutathion-Sepharose affinity chromatography, were purchased from ProQinase GmbH (Freiburg, Germany) As substrate for the kinase reaction biotinylated peptide biotin-Ttds-YISPLKSPYKISEG (C-terminus in amid form) was used which can be purchased e.g. form the company JERINI Peptide Technologies (Berlin, Germany).
# For the assay 50 nl of a 100 fold concentrated solution of the test compound in DMSO was pipetted into a black low volume 384 well microtiter plate (Greiner Bio-One, Frickenhausen, Germany), 2 μl of a solution of CDK2/CycE in aqueous assay buffer [50 mM Tris/HCl pH 8.0, 10 mM MgCl2, 1.0 mM dithiothreitol, 0.1 mM sodium ortho-vanadate, 0.01% (v/v) Nonidet-P40 (Sigma)] were added and the mixture was incubated for 15 min at 22° C. to allow pre-binding of the test compounds to the enzyme before the start of the kinase reaction. Then the kinase reaction was started by the addition of 3 μl of a solution of adenosine-tri-phosphate (ATP, 16.7 μM=>final conc. in the 5 μl assay volume is 10 μM) and substrate (1.25 μM=>final conc. in the 5 μl assay volume is 0.75 μM) in assay buffer and the resulting mixture was incubated for a reaction time of 25 min at 22° C. The concentration of CDK2/CycE was adjusted depending of the activity of the enzyme lot and was chosen appropriate to have the assay in the linear range, typical concentrations were in the range of 130 ng/ml. The reaction was stopped by the addition of 5 μl of a solution of TR-FRET detection reagents (0.2 μM streptavidine-XL665 [Cisbio Bioassays, Codolet, France] and 1 nM anti-RB(pSer807/pSer811)-antibody from BD Pharmingen [#558389] and 1.2 nM LANCE EU-W1024 labeled anti-mouse IgG antibody [Perkin-Elmer, product no. AD0077]) in an aqueous EDTA-solution (100 mM EDTA, 0.2% (w/v) bovine serum albumin in 100 mM HEPES/NaOH pH 7.0).
# The resulting mixture was incubated 1 h at 22° C. to allow the formation of complex between the phosphorylated biotinylated peptide and the detection reagents. Subsequently the amount of phosphorylated substrate was evaluated by measurement of the resonance energy transfer from the Eu-chelate to the streptavidine-XL. Therefore, the fluorescence emissions at 620 nm and 665 nm after excitation at 350 nm was measured in a TR-FRET reader, e.g. a Rubystar (BMG Labtechnologies, Offenburg, Germany) or a Viewlux (Perkin-Elmer). The ratio of the emissions at 665 nm and at […] was taken as the measure for the amount of phosphorylated substrate. The data were normalised (enzyme reaction without inhibitor=0% inhibition, all other assay components but no enzyme=100% inhibition).
# [5] = system: Caco-2 cells; test: Proliferation assay, Caco-2 (Method 3); type: cell-based, human; settings: 4 days, crystal violet, read-out: Inhibition of Caco-2 cell proliferation IC50
# Protocol: as §1
# [6] = system: NCI-H460 cells; test: Proliferation assay, NCI-H460 (Method 3); type: cell-based, human; settings: 4 days, crystal violet, read-out: Inhibition of NCI-H460 cell proliferation IC50
# Protocol: as §1
# [7] = system: HeLa cells; test: Proliferation assay, HeLa (Method 3); type: cell-based, human; settings: 4 days, crystal violet, read-out: Inhibition of HeLa cell proliferation IC50
# Protocol: as §1
SMILES,"IC50 ([1]; Homo sapiens, A2780, 96 h)","IC50 ([2]; Mus musculus, B16-F10, 96 h)","IC50 ([3]; Homo sapiens, 96 h)",IC50 [4],"IC50 ([5]; Homo sapiens, Caco-2, 96 h)","IC50 ([6]; Homo sapiens, NCI-H460, 96 h)",IC50 [7],"IC50 ([7]; Homo sapiens, HeLa, 96 h)",IC50 [1],IC50 [2],IC50 [3],IC50 [5],IC50 [6]
"COc1cc(F)ccc1-c1cc(Nc2cc(CS(C)(=N)=O)cc(C)n2)ncn1 (single isomer, unassigned) [Example 8, 6-(4-Fluoro-2-methoxyphenyl)-N-{6-methyl-4-[(S-methylsulfonimidoyl)methyl]pyridin-2-yl}pyrimidin-4-amine]",0.036 µM,0.284 µM,0.112 µM,0.4 µM,0.246 µM,0.319 µM,0.118 µM,–,–,–,–,–,–
"COc1cc(F)ccc1-c1cc(Nc2cc(CS(C)(=N)=O)cc(Cl)n2)ncn1 (single isomer, unassigned) [Example 5, N-{6-Chloro-4-[(S-methylsulfonimidoyl)methyl]pyridin-2-yl}-6-(4-fluoro-2-methoxyphenyl)pyrimidin-4-amine]",0.034 µM,0.122 µM,0.109 µM,0.056 µM,0.166 µM,0.185 µM,–,0.104 µM,–,–,–,–,–
"COc1cc(F)ccc1-c1cc(Nc2cc(CS(C)(=N)=O)ccn2)ncn1 (single isomer, unassigned) [Example 3, 6-(4-Fluoro-2-methoxyphenyl)-N-{4-[(S-methylsulfonimidoyl)methyl]pyridin-2-yl}pyrimidin-4-amine]",–,–,–,0.66 µM,–,–,0.85 µM,–,0.126 µM,–,–,–,–
"COc1cc(F)ccc1-c1cc(Nc2cc(CS(C)(=N)=O)cc(Cl)n2)ncn1 (racemic) [Example 4, (rac)-N-{6-Chloro-4-[(S-methylsulfonimidoyl)methyl]pyridin-2-yl}-6-(4-fluoro-2-methoxyphenyl)pyrimidin-4-amine]",0.062 µM,0.215 µM,0.097 µM,0.16 µM,0.145 µM,0.372 µM,–,0.109 µM,–,–,–,–,–
"COc1cc(F)ccc1-c1cc(Nc2cc(CS(C)(=N)=O)cc(C)n2)ncn1 (single isomer, unassigned) [Example 9, 6-(4-Fluoro-2-methoxyphenyl)-N-{6-methyl-4-[(S-methylsulfonimidoyl)methyl]pyridin-2-yl}pyrimidin-4-amine]",–,–,–,0.33 µM,–,–,0.052 µM,–,0.039 µM,0.205 µM,0.178 µM,0.212 µM,0.193 µM
"COc1cc(F)ccc1-c1cc(Nc2cc(CS(C)(=N)=O)cc(Cl)n2)ncn1 (single isomer, unassigned) [Example 6, N-{6-Chloro-4-[(S-methylsulfonimidoyl)methyl]pyridin-2-yl}-6-(4-fluoro-2-methoxyphenyl)pyrimidin-4-amine]",–,–,–,0.094 µM,–,–,0.104 µM,–,0.039 µM,0.123 µM,0.111 µM,0.177 µM,0.192 µM
"COc1cc(F)ccc1-c1cc(Nc2cc(CS(C)(=N)=O)cc(C(F)(F)F)n2)ncn1 (racemic) [Example 10, (rac)-6-(4-Fluoro-2-methoxyphenyl)-N-{4-[(S-methylsulfonimidoyl)methyl]-6-(trifluoromethyl)pyridin-2-yl}pyrimidin-4-amine]",0.032 µM,0.1 µM,0.104 µM,0.063 µM,0.116 µM,0.135 µM,–,0.06 µM,–,–,–,–,–
"COc1cc(F)ccc1-c1cc(Nc2cc(CS(C)(=N)=O)ccn2)ncn1 (single isomer, unassigned) [Example 2, 6-(4-Fluoro-2-methoxyphenyl)-N-{4-[(S-methylsulfonimidoyl)methyl]pyridin-2-yl}pyrimidin-4-amine]",0.193 µM,–,–,1.3 µM,–,–,–,0.456 µM,–,–,–,–,–
"COc1cc(F)ccc1-c1cc(Nc2cc(CS(C)(=N)=O)cc(C)n2)ncn1 (racemic) [Example 7, (rac)-6-(4-Fluoro-2-methoxyphenyl)-N-{6-methyl-4-[(S-methylsulfonimidoyl)methyl]pyridin-2-yl}pyrimidin-4-amine]",0.035 µM,0.216 µM,0.217 µM,0.28 µM,0.23 µM,0.375 µM,–,0.121 µM,–,–,–,–,–
"COc1cc(F)ccc1-c1cc(Nc2cc(CS(C)(=N)=O)ccn2)ncn1 (racemic) [Example 1, (rac)-6-(4-Fluoro-2-methoxyphenyl)-N-{4-[(S-methylsulfonimidoyl)methyl]pyridin-2-yl}pyrimidin-4-amine]",0.06 µM,0.488 µM,0.335 µM,0.6 µM,0.537 µM,0.638 µM,–,0.477 µM,–,–,–,–,–
